In brackets after ≈: the same amount, converted by molar mass. Several values for one entry are separate records, joined by “and”; a condition that tells them apart may be missing. Equal values may be shown once. Read-outs that look alike come from different tables or passages of the source. Where a SMILES comes first, the peptide text is derived from it. Bridges are numbered along the chain shown (N, C = ends).
Legend:
Jurkat cells = experiment: Cytotoxicity of peptides against Jurkat cells (Trypan Blue); type: cell-based; conditions: 20 μM
Procedure: Cytotoxicity of the peptides against T lymphocytes, for example Jurkat cells, was determined seeding the cells at a density of about 5*10^5 cells/ml in the presence and in the absence of peptides and incubating overnight at 37° C. in thermostat under CO2. As a negative cytotoxicity control, a medium lacking the test peptide was used, while as a positive cytotoxicity control, a medium containing 0.2% Triton X-100 was used, to completely lyse the cells. The cell viability was subsequently determined by adding 20 μl of Trypan Blue in each well, and by incubation of the cells for additional 5 min a 37° C. MCC10 value was calculated as the minimum peptide concentration necessary to induce 10% of cytotoxicity.

[1] = test system: Malassezia pachydermatis ATCC 14522; experiment: Broth-microdilution test and subsequent plating on agar, fungi (yeasts); type: cell-based; conditions: 2 h contact at 37° C., CFU count on agar Sabouraud
Procedure: (§1) The inoculum was set up by culturing Candida albicans ATCC 10231 and Malassezia pachydermatis ATCC 14522 in Czapek-Dox broth medium (DIFCO) for 48-72 h. On the assay day, the fungal culture was centrifuged at 1700×g for 15 min, the pellet was resuspended in phosphate buffer and submitted to shaking by the use of an electric vortex to disperse the fungal cell aggregates. The suspension was diluted until an optical density equal to an opacity of 0.5 on the McFarland turbidimetric scale was reached, which contains approximately 1-5×10^6 cell/ml (Branda J. A., Krantz A. Effectc of yeast on automated cell counting. Am J Clin Pathol., 2006:126, 248-254).
(§2) The peptides were tested for their ability to inhibit fungal growth. Fifty microliters of peptide at a concentration comprised between about 0.2 mM and about 50 mM were added in 96-well U-bottom plates containing phosphate buffer and one of the following fungi: Candida albicans ATCC 10231 and Malassezia pachydermatis ATCC 14522. After 2 h incubation at 37° C., fungi were transferred on the solid medium agar Sabouraud. As a control, fungal cultures were cultured in the absence of peptide.
(§3) The fungal suspension was put in contact for two hours with different concentrations of the peptide at the temperature of 37° C. After incubation, 20 μl were drawn from the wells of each dilution and seeded on the solid medium agar Sabouraud. The inoculum was evenly distributed on the agarized medium by means of a sterile disposable loop. After incubation for 24 h at the temperature of 37° C., counting of the fungal colonies (CFU) was performed.

[2] = test system: Candida albicans ATCC 10231; experiment: as above; type: cell-based; conditions: 2 h contact at 37° C., CFU count on agar Sabouraud
Procedure: as §1, §2, §3

[3] = test system: Pseudomonas aeruginosa ATCC 27853; type: cell-based; conditions: for LD90 P. aeruginosa ATCC 27853: 2 h contact at 37° C., CFU count after 24 h
Procedure: (§4) For each bacterial strain, 3-5 morphologically similar colonies were drawn from fresh cultures, inoculated in Brain Hearth Infusion broth liquid medium and incubated at the temperature of 37° C. under shaking at 225 r.p.m. for 3-4 h. Subsequently, the bacterial suspension was centrifuged at 1000 g for 20 min and the thus obtained pellet was resuspended in phosphate buffer 10 mM. Turbidity was measured in a spectrophotometer with absorbance at 600 nm, equivalent in the range 0.08-0.13 to a concentration of about 10^8 CFU/ml. The bacterial suspension was diluted 1:100 in phosphate buffer 10 mM, and within 30 min 50 microliters of such bacterial suspension (10^6 CFU/ml) were inoculated in each well of the microtiter plate, to obtain a final bacterial concentration of about 5×10^5 CFU/ml.
(§5) Several peptides were tested for their ability to inhibit bacterial growth in liquid culture. Fifty microliters of peptide at a concentration comprised between about 0.2 mM and 50 mM were added in 96-well U-bottom plates containing liquid growth medium and one of the following bacteria: Escherichia coli ATCC 25922, P. aeruginosa ATCC 27853, Stenotrophomonas maltophilia ATCC 13637. After 2 hour incubation at 37° C., bacteria were transferred on a solid medium. As a growth control, bacterial cultures were cultured in the absence of peptides.
(§6) The bacterial suspension was put in contact for two hours with different concentrations of the peptide at the temperature of 37° C. After incubation, 20 μl were drawn from the wells of each dilution and seeded on solid medium, agar McConkey. The inoculum was evenly distributed on the agarized medium by means of a sterile disposable loop. After incubation for 24 h at the temperature of 37° C., counting of the bacterial colonies (CFU) was performed.

[4] = test system: Escherichia coli ATCC 25922; type: cell-based; conditions: for LD90 E. coli ATCC 25922: 2 h contact at 37° C., CFU count after 24 h
Procedure: as §4, §5, §6

[5] = test system: Stenotrophomonas maltophilia ATCC 13637; experiment: Broth-microdilution test and subsequent plating on agar, Gram-negative bacteria; type: cell-based; conditions: 2 h contact at 37° C., CFU count after 24 h
Procedure: as §4, §5, §6

E. coli ML-35pYC = experiment: Membrane permeabilization assay (CENTA / ONPG kinetics); type: cell-based, Escherichia coli; conditions: peptide 12.5 μg/ml, logistic 4-parameter fit, read up to 240 min; for Inflexion point CENTA: CENTA substrate (periplasmic beta-lactamase)
Procedure: The strain ML-35pYC of E. coli was used to assay the kinetics of membrane permeabilization performed by the peptides of the invention. This bacterial strain expresses resistance to ampicillin, constitutive expression of cytoplasmic beta-galactosidase, and is engineered with a plasmid for the synthesis of a periplasmic beta-lactamase. Sixty microliters (60 μl) of bacterial suspension of strain ML-35pYC of E. coli were added to 60 μl of a 15 mM solution of ONPG or 1.5 mM of CENTA in phosphate buffer. Subsequently, 120 μl of the test peptides were added to obtain a final concentration of 12.5 μg/ml. The kinetics of the reaction was evaluated by recording the value of absorbance at […] and 405 nm, for ONPG and CENTA respectively, every 10 min up to a maximum of 240 min.
By “fitting” the experimental points with the logistic 4-parameter curve, it was possible to determine the inflexion point, that is the point where the curve changes direction, relative to the 3 test peptides. No inflexion point was observed during the assay with CENTA (inflexion point higher than 500 min).

[6] = test system: meticillin-resistant S. aureus ATCC 43300; experiment: Broth-microdilution test and subsequent plating on agar, Gram-positive bacteria; type: cell-based, Staphylococcus aureus; conditions: 2 h contact at 37° C., CFU count after 24 h
Procedure: as §4, with “30 min,” for “30 min”
(§7) Several synthetic peptides were tested for their ability to inhibit bacterial growth. Fifty microliters of peptide at a concentration comprised between about 0.2 mM and about 50 mM were added to 96-well U-bottom plates containing phosphate buffer and one of the following bacteria: S. aureus ATCC 25923, meticillin-resistant S. aureus ATCC 43300. After 2 hour incubation at 37° C., bacteria were transferred on a solid medium. As a control, the bacterial cultures were cultured in the absence of peptide.
as §6, with “medium, Columbia” for “medium,”, “agar supplemented with 5% bovine red blood cells for Gram-positive bacteria.” for “agar McConkey.”, “24 hours” for “24 h”

S. aureus ATCC 25923 = experiment: as above; type: cell-based, Staphylococcus aureus; conditions: meticillin-sensitive, 2 h contact at 37° C., CFU count after 24 h
Procedure: as §4, with “30 min,” for “30 min”
as §7
as §6, with “medium, Columbia” for “medium,”, “agar supplemented with 5% bovine red blood cells for Gram-positive bacteria.” for “agar McConkey.”, “24 hours” for “24 h”

Compound	LD90 Malassezia pachydermatis [1]	LD90 Candida albicans [2]	LD90 P. aeruginosa ATCC 27853 [3]	MBC P. aeruginosa ATCC 27853 [3]	LD90 E. coli ATCC 25922 [4]	MBC E. coli ATCC 25922 [4]	LD90 S. maltophilia ATCC 13637 [5]	Inflexion point CENTA (E. coli ML-35pYC)	LD90 MRSA ATCC 43300 [6]	LD90 S. aureus ATCC 25923 (S. aureus ATCC 25923)	further results
CC[C@H](C)[C@@H]1NC(=O)CNC(=O)[C@H](CCCNC(=N)N)NC(=O)[C@H](Cc2ccc(O)cc2)NC(=O)[C@@H]2CSSC[C@H](NC1=O)C(=O)N[C@@H](Cc1ccc(O)cc1)C(=O)N[C@@H](CCCNC(=N)N)C(=O)N[C@@H](CCCNC(=N)N)C(=O)N[C@H](C(=O)N[C@@H](CCCNC(=N)N)C(N)=O)CSSC[C@H](NC(=O)[C@H](Cc1c[nH]c3ccccc13)NC(=O)[C@@H](N)CCCCN)C(=O)N[C@@H](Cc1ccccc1)C(=O)N[C@@H](CCCNC(=N)N)C(=O)N[C@@H](C(C)C)C(=O)N2 [tachyplesin-1] (H-KWCFRVCYRGICYRRCR-NH2; disulfide 3-16, 7-12)	–	–	–	–	–	–	–	–	–	–	death of the cells (Jurkat) (Jurkat cells): 10%
CC(C)C[C@@H]1NC(=O)CNC(=O)[C@H](CCCNC(=N)N)NC(=O)[C@H](C(C)C)NC(=O)[C@H](CCCCN)NC(=O)[C@H](C(C)C)NC(=O)[C@H](CC(C)C)NC(=O)[C@H](C)NC(=O)[C@@H](NC(=O)CNC(=O)[C@@H](N)CCCCN)CSSC[C@@H](C(=O)N[C@@H](CCCCN)C(=O)O)NC(=O)[C@H](C(C)C)NC(=O)[C@H](CCCCN)NC(=O)[C@H](CC(C)C)NC(=O)[C@H]([C@@H](C)O)NC1=O (relative stereo) [Peptide P72, LYS*GLY*CYS*ALA*LEU*VAL*LYS*VAL*ARG*GLY*LEU*THR*LEU*LYS*VAL*CYS*LYS]	0.68 µM	1.03 µM	0.87 µM	2.84 µg/mL (≈ 1.57 µM)	0.86 µM	9.68 µg/mL (≈ 5.34 µM)	1.88 µM	>500 min	0.90 µM	3.39 µM	LD90 Malassezia pachydermatis ([1]; listed as 72): 0.68 μM and 1.24 μg/ml; LD90 Candida albicans ([2]; listed as 72): 1.03 μM and 1.87 μg/ml; LD90 P. aeruginosa ATCC 27853 ([3]; listed as 72): 0.87 μM and 1.61 μg/ml; LD90 E. coli ATCC 25922 ([4]; listed as 72): 1.69 μg/ml and 0.86 μM; LD90 S. maltophilia ATCC 13637 ([5]; listed as 72): 1.88 μM and 3.42 μg/ml; Inflexion point ONPG (E. coli ML-35pYC; ONPG substrate (cytoplasmic beta-galactosidase)): 7.86 min; LD90 MRSA ATCC 43300 ([6]; listed as 72): 0.90 μM and 1.65 μg/ml; LD90 S. aureus ATCC 25923 (S. aureus ATCC 25923; listed as 72): 3.39 μM and 6.16 μg/ml
CC[C@H](C)[C@@H]1NC(=O)[C@H](Cc2ccccc2)NC(=O)[C@H](CCCCN)NC(=O)[C@H](C(C)C)NC(=O)CNC(=O)[C@H](CCCNC(=N)N)NC(=O)[C@H](Cc2c[nH]c3ccccc23)NC(=O)[C@H](CCC(N)=O)NC(=O)[C@H](Cc2c[nH]c3ccccc23)NC(=O)[C@H](CCCCN)NC(=O)[C@H](CCCNC(=N)N)NC(=O)[C@@H](NC(=O)[C@H](Cc2c[nH]c3ccccc23)NC(=O)[C@@H](N)CCCCN)CSSC[C@@H](C(=O)N[C@H](C(=O)O)C(C)C)NC(=O)[C@H](CCCCN)NC1=O (relative stereo) [Peptide P126, LYS*TRP*CYS*ARG*LYS*TRP*GLN*TRP*ARG*GLY*VAL*LYS*PHE*ILE*LYS*CYS*VAL]	0.75 µM	1.98 µM	0.20 µM	4.53 µg/mL (≈ 2.01 µM)	0.91 µM	12.5 µg/mL (≈ 5.56 µM)	6.65 µM	>500 min	>70 µM	4.68 µM	LD90 Candida albicans ([2]; listed as 126): about 2 μM; LD90 P. aeruginosa ATCC 27853 ([3]; listed as 126): 0.20 μM and 0.4 μg/ml; LD90 E. coli ATCC 25922 ([4]; listed as 126): 1.86 μg/ml and 0.91 μM; LD90 MRSA ATCC 43300 ([6]; listed as 126): about 71 μM and ~100 μg/ml; LD90 S. aureus ATCC 25923 (S. aureus ATCC 25923; listed as 126): 4.68 μM and 9.54 μg/ml
